The text below walks through data of patent US8329686B2, “Isatin analogues and uses therefor” (Washington University, priority 2006, dated 2012).

For one data set, the target named is T1, caspase-3 (Homo sapiens, UniProt P42574).
T1 construct: purchased Sigma-Aldrich (St. Louis, Mo.)
T1 sequence (P42574 29-175 limits assumed): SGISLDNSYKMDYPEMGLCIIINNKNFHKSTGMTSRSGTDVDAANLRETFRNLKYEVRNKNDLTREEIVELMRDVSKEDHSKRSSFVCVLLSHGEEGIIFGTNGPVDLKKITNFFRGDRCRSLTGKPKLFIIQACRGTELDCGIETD
T1 sequence (P42574 176-277 limits assumed): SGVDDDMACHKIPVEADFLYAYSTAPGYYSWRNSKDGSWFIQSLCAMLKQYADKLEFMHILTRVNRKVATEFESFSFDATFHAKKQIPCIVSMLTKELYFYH
As to the kind of experiment: Enzyme inhibition assay, caspase 3 (fluorogenic Ac-DEVD-AMC). It counts as biochemical.

A further data set addresses T2, caspase 7 (Homo sapiens, UniProt P55210).
T2 construct: purchased Sigma-Aldrich (St. Louis, Mo.)
T2 sequence (P55210 24-198 limits assumed): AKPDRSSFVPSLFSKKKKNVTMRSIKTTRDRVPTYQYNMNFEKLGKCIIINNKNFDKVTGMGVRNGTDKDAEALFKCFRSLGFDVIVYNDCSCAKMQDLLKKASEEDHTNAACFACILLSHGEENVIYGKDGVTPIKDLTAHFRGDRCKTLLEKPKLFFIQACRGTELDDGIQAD
T2 sequence (P55210 207-303 limits assumed): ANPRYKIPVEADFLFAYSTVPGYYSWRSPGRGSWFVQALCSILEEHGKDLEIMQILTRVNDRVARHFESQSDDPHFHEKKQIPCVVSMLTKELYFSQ
As to the kind of experiment: Enzyme inhibition assay, caspase 7 (fluorogenic Ac-DEVD-AMC). It counts as biochemical.

The next data set concerns the target T3, caspase 1 (Homo sapiens, UniProt P29466).
T3 construct: purchased BIOMOL Research Laboratories (Plymouth Meeting, Pa.)
T3 sequence (P29466 120-297 limits assumed): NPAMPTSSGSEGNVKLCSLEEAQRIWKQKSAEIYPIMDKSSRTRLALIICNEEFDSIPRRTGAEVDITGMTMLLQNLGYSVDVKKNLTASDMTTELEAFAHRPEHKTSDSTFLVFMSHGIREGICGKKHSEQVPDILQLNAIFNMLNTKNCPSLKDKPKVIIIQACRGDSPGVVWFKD
T3 sequence (P29466 317-404 limits assumed): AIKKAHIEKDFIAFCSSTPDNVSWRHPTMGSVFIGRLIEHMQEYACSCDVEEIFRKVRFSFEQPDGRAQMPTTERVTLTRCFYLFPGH
The experiment in a line: Enzyme inhibition assay, caspase 1 (fluorogenic Ac-YVAD-AMC). It counts as biochemical.

The next data set has as its target T4, caspase 6 (Homo sapiens, UniProt P55212).
T4 construct: purchased Sigma-Aldrich (St. Louis, Mo.)
T4 sequence (P55212 24-179 limits assumed): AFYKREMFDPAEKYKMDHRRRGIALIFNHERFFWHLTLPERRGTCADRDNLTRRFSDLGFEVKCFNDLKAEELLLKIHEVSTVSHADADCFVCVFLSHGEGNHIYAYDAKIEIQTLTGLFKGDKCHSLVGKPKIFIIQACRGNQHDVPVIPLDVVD
T4 sequence (P55212 194-293 limits assumed): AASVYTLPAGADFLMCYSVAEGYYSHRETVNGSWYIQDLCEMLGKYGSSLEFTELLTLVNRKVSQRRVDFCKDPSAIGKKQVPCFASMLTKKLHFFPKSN
As to the kind of experiment: Enzyme inhibition assay, caspase 6 (fluorogenic Ac-VEID-AMC). It counts as biochemical.

The next data set deals with T5, caspase 8 (Homo sapiens, UniProt Q14790).
T5 construct: purchased Sigma-Aldrich (St. Louis, Mo.)
The experiment in a line: Enzyme inhibition assay, caspase 8 (fluorogenic Ac-IETD-AMC). It counts as biochemical.

The mark [1] stands for this setting: Table 5, read-out: IC50 (nM) caspase-3.
[2] abbreviates: Table 5, read-out: IC50 (nM) caspase-7.
[3] abbreviates: Table 4, read-out: IC50 (nM) caspase-3.
Where [4] appears, read: Table 4, read-out: IC50 (nM) caspase-7.
[5] abbreviates: Table 2, read-out: IC50 (nM) Caspase 1.
The mark [6] stands for this setting: Table 7, read-out: IC50 (nM) Casp-1.
Where [7] appears, read: Table 2, read-out: IC50 (nM) Caspase 3.
Setting [8] is: Table 7, read-out: IC50 (nM) Casp-3.
Where [9] appears, read: Table 2, read-out: IC50 (nM) Caspase 6.
The mark [10] stands for this setting: Table 7, read-out: IC50 (nM) Casp-6.
[11] abbreviates: Table 2, read-out: IC50 (nM) Caspase 7.
Setting [12] is: Table 7, read-out: IC50 (nM) Casp-7.
[13] abbreviates: Table 2, read-out: IC50 (nM) Caspase 8.
Setting [14] is: Table 7, read-out: IC50 (nM) Casp-8.

Read-outs that look alike come from different tables or passages of the source.

T5 sequence (Q14790 217-374 limits assumed): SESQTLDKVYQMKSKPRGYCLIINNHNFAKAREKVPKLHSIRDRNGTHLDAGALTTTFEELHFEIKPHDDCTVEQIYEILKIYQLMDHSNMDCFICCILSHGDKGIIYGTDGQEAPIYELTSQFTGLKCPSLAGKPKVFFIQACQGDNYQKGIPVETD
T5 sequence (Q14790 385-479 limits assumed): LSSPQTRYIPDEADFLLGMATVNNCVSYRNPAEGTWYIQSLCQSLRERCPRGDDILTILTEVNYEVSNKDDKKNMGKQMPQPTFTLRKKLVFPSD
Method for caspase 6: (§1) Enzyme Assays. Inhibition of recombinant human caspase-3 and other caspases by the isatin analogues was assessed using a fluorometric assay by measuring the accumulation of a fluorogenic product, 7-amino-4-methylcoumarin (7-AMC).
(§2) Enzyme Inhibition Assays. Recombinant human caspases (3, 6, 7, and 8) and their peptide-specific substrates (Ac-DEVDAMC, Ac-VEID-AMC, Ac-DEVD-AMC, and Ac-IETD-AMC, respectively) were purchased from Sigma-Aldrich (St. Louis, Mo.) with the exception of caspase 1 and its substrate (Ac-YVAD-AMC), which were obtained from BIOMOL Research Laboratories (Plymouth Meeting, Pa.). The enzymatic activity of caspases was determined by measuring the accumulation of the fluorogenic product 7-amino-4-methylcoumarin (AMC). All assays were prepared in 96-well format at a volume of 210 μL per well and consisted of 100 mM Na+ HEPES (pH 7.4), 10% sucrose, 100 mM NaCl, 0.1% CHAPS, 5 mM 2-mercaptoethanol, 2 mM EDTA, 10 μM Ac-YVAD-AMC (caspase 1); 20 mMNa^+ HEPES (pH 7.4), 10% sucrose, 100 mMNaCl, 0.1% CHAPS, 2 mM EDTA, 10 μM Ac-DEVD-AMC (caspase 3); 20 mM Na^+ HEPES (pH 7.4), 10% sucrose, 100 mM NaCl, 0.1% CHAPS, 2 mM EDTA, 10 μM Ac-VEID-AMC (caspase 6); 20 mM Na+ HEPES (pH 7.4), 100 mM NaCl, 10% sucrose, 0.1% CHAPS, 5 mM 2-mercaptoethanol, 2 mM EDTA, 10 μM Ac-DEVD-AMC (caspase 7); 20 mM Na+ HEPES (pH 7.4), 10% sucrose, 100 mM NaCl, 0.1% CHAPS, 2 mM EDTA, 10 μM Ac-IETD-AMC (caspase 8).
(§3) Recombinant caspases were first assayed to determine the optimal concentration for each experiment. Optimal concentrations were based in the linear range of the enzyme activation curves. Peptide inhibitors with known IC50 values were tested together with the compounds as a control for each caspase assay. […] Peptide and nonpeptide inhibitors were dissolved in DMSO, and a 2 serial dilution was performed prior to screening in order to obtain desired concentrations. 10 μL was added to each well containing 100 μL caspase solution and allowed to incubate on ice for 30 min. […] The final concentration of DMSO in all wells was 5% of the total volume. In caspase-1 and caspase-7 assays, 10 mM 2-mercaptoethanol was added to the substrate solution for full activation of the enzymes.
(§4) Compounds were tested in duplicate, and IC50 curves were calculated for all inhibitors assayed. Final IC50s were the average of three independent experiments.
Method for caspase 8: as §1, §2, §3, §4
Method for caspase-3: as §1, §2, §3, §4

What is called IC50 is the point on the concentration scale where inhibition reaches its midpoint. The melting point is the temperature of the solid-liquid transition. The molecule `O=C1Nc2ccc(S(=O)(=O)N3CC[C@H]3COc3ccccc3)cc2C1=O` [Compound 17, (S)-5-(2-Phenoxymethyl-azetidine-1-sulfonyl)-1H-indole-2,3-dione] yielded a melting point of 173.2 to 174.5 °C. Also, at caspase-3 (setting [1]), the IC50 amounted to 287 ± 24.7 nM. Besides, the IC50 at caspase 7 (setting [2]) was found to be 1350 ± 141 nM. In addition, the “fold less potent for inhibiting caspase-7” value at caspase 7 (relative to the corresponding pyrrolidine analogue 10) is greater than 2 fold.
Turning to `O=C1C(=O)N(Cc2ccc(F)cc2)c2ccc(S(=O)(=O)N3CCC[C@H]3COc3ccccc3)cc21` [Compound 11c, (S)-1-(4-Fluorobenzyl)-5-(2-phenoxymethyl-pyrrolidine-1-sulfonyl)-1H-indole-2,3-dione], the melting point is 74.5 to 75.4 °C.
Consider `CSc1ccc(CN2C(=O)C(=O)c3cc(S(=O)(=O)N4CC[C@H]4COc4ccccc4)ccc32)cc1` [Compound 18d, (S)-1-(4-Methylthiobenzyl)-5-(2-phenoxymethyl-azetidine-1-sulfonyl)-1H-indole-2,3-dione], for which the melting point fell in the range of 167.6 to 169.2 °C. For the same molecule, the concentration for half-maximal inhibition (IC50) at caspase-3 (setting [1]) is 11.3 ± 1.2 nM. The IC50 on caspase 7 (setting [2]) is 26.7 ± 7.2 nM.
In the same order, the values of `O=C1C(=O)N(Cc2ccc(F)cc2)c2ccc(S(=O)(=O)N3CC[C@H]3COc3ccccc3)cc21` [Compound 18e, (S)-1-(4-Fluorobenzyl)-5-(2-phenoxymethyl-azetidine-1-sulfonyl)-1H-indole-2,3-dione] are 164.6 to 165.7 °C, 8.8 ± 1.4 nM and 21 ± 5.6 nM.
The like results for `O=C1C(=O)N(Cc2ccnc(F)c2)c2ccc(S(=O)(=O)N3CC[C@H]3COc3ccccc3)cc21` [Compound 18h, (S)-1-(2-Fluoropyridin-4-yl-methyl)-5-(2-phenoxymethylazetidine-1-sulfonyl)-1H-indole-2,3-dione] were, in that order, 159 to 159.9 °C, 29.2 ± 5.2 nM and 135 ± 7.1 nM.
On to `CSc1ccc(CN2C(=O)C(=O)c3cc(S(=O)(=O)N4CCC[C@H]4COc4ccccc4)ccc32)cc1` [Compound 11d, (S)-1-(4-Methylthiobenzyl)-5-(2-phenoxymethyl-pyrrolidine-1-sulfonyl)-1H-indole-2,3-dione], for which the melting point is 175.4 to 176.8 °C.
In the case of `COc1ccc(CN2C(=O)C(=O)c3cc(S(=O)(=O)N4CC[C@H]4COc4ccccc4)ccc32)cc1` [Compound 18c, (S)-1-(4-Methoxybenzyl)-5-(2-phenoxymethyl-azetidine-1-sulfonyl)-1H-indole-2,3-dione], the melting point fell in the range of 159.8 to 161.5 °C. The IC50 on caspase-3 (setting [1]) amounted to 8.4 ± 1.2 nM. Further, the half-maximal inhibitory concentration (IC50) on caspase 7 (setting [2]) turned out to be 23.2 ± 3 nM.
For the molecule `O=C1C(=O)N(Cc2ccccc2)c2ccc(S(=O)(=O)N3CC[C@H]3COc3ccccc3)cc21` [Compound 18b, (S)-1-Benzyl-5-(2-phenoxymethyl-azetidine-1-sulfonyl)-1H-indole-2,3-dione], the melting point lay in the range of 157.1 to 158.9 °C. Moreover, at caspase-3 (setting [1]), the IC50 was 9.7 ± 1.6 nM. Also, the IC50 on caspase 7 (setting [2]) amounted to 29.5 ± 4.9 nM.
As to `O=C1C(=O)N(Cc2cccc(F)n2)c2ccc(S(=O)(=O)N3CC[C@H]3COc3ccccc3)cc21` [Compound 18i, (S)-1-(6-Fluoropyridin-2-yl-methyl)-5-(2-phenoxymethylazetidine-1-sulfonyl)-1H-indole-2,3-dione], the melting point fell in the range of 144.7 to 146.1 °C. The IC50 on caspase-3 (setting [1]) came out at 5.8 ± 1 nM. The IC50 on caspase 7 (setting [2]) was found to be 22.7 ± 3.1 nM.
With `O=C1C(=O)N(Cc2ccc(F)nc2)c2ccc(S(=O)(=O)N3CC[C@H]3COc3ccccc3)cc21` [Compound 18g, (S)-1-(6-Fluoropyridin-3-ylmethyl)-5-(2-phenoxymethylazetidine-1-sulfonyl)-1H-indole-2,3-dione], the melting point is 176.8 to 178.3 °C. In addition, at caspase-3 (setting [1]), the IC50 was 10.9 ± 1.4 nM. Further, the IC50 on caspase 7 (setting [2]) turned out to be 17 ± 3 nM.
For the molecule `O=C1C(=O)N(Cc2cccc(F)n2)c2ccc(S(=O)(=O)N3CCC[C@H]3COc3ccccc3)cc21` [Compound 11i, (S)-1-(6-Fluoro-pyridin-2-yl-methyl)-5-(2-phenoxymethyl-pyrrolidine-1-sulfonyl)-1H-indole-2,3-dione], the melting point lay within 128.6 to 129.4 °C. Moreover, the IC50 on caspase-3 (setting [3]) worked out at 9.1 ± 1.8 nM. The IC50 on caspase 7 (setting [4]) was 22.2 ± 4 nM.
Consider `O=C1C(=O)N(Cc2ccccc2F)c2ccc(S(=O)(=O)N3CC[C@H]3COc3ccccc3)cc21` [Compound 18f, (S)-1-(2-Fluorobenzyl)-5-(2-phenoxymethyl-azetidine-1-sulfonyl)-1H-indole-2,3-dione], for which the melting point lay within 147.1 to 148 °C. In addition, the IC50 on caspase-3 (setting [1]) turned out to be 9.4 ± 0.3 nM. Further, the IC50 at caspase 7 (setting [2]) was 26 ± 5.2 nM.
Molecule `CN1C(=O)C(=O)c2cc(S(=O)(=O)N3CC[C@H]3COc3ccccc3)ccc21` [Compound 18a, (S)-1-Methyl-5-(2-phenoxymethyl-azetidine-1-sulfonyl)-1H-indole-2,3-dione] yielded a melting point of 173.5 to 174.9 °C. Moreover, the IC50 on caspase-3 (setting [1]) is 91.7 ± 7.6 nM. The IC50 on caspase 7 (setting [2]) came to 362.5 ± 3.5 nM.
Consider `O=C1C(=O)N(Cc2ccccc2)c2ccc(S(=O)(=O)N3CCC[C@H]3COc3ccccc3)cc21` [Compound 2, (S)-1-Benzyl-5-(2-phenoxymethyl-pyrrolidine-1-sulfonyl)-1H-indole-2,3-dione], for which the melting point lay within 97.2 to 99.1 °C. In addition, the IC50 at caspase-3 (setting [3]) amounted to 12.2 ± 0.3 nM. Further, the IC50 on caspase 7 (setting [4]) was 28 ± 0.7 nM.
Consider `N#CC(C#N)=C1C(=O)Nc2ccc(S(=O)(=O)N3CCCC3COc3ccccc3)cc21` (stereo not drawn) [Compound 26, 2-[2-Oxo-5-(2-phenoxymethyl-pyrrolidine-1-sulfonyl)-1,2-dihydro-indol-3-yl-idene]-malononitrile], for which the IC50 amounted to 1830 nM on caspase 1 (setting [5]); 1830 ± 128 nM at caspase 1 (setting [6]); 272 ± 25 nM at caspase-3 (setting [7]); 272 ± 24.7 nM on caspase-3 (setting [8]); 272 nM at caspase-3 (read-out: IC50 for caspase-3); 407 ± 15 nM at caspase 6 (setting [9]). Further, the concentration for half-maximal inhibition (IC50) is 407 ± 15 nM on caspase 6 (setting [10]); 1580 nM at caspase 7 (setting [11]); 1580 ± 163 nM at caspase 7 (setting [12]); 1580 nM at caspase 7 (read-out: IC50 for caspase-7); greater than 50000 nM at caspase 8 (setting [13]); greater than 50000 nM on caspase 8 (setting [14]).
For the molecule `O=C1C(=O)N(Cc2ccnc(F)c2)c2ccc(S(=O)(=O)N3CCC[C@H]3COc3ccccc3)cc21` [Compound 11h, (S)-1-(2-Fluoro-pyridin-4-yl-methyl)-5-(2-phenoxymethyl-pyrrolidine-1-sulfonyl)-1H-indole-2,3-dione], the melting point fell in the range of 180.1 to 181.9 °C. On caspase-3 (setting [3]), the 50% inhibitory concentration (IC50) came out at 21.3 ± 3.2 nM. Also, the 50% inhibitory concentration (IC50) on caspase 7 (setting [4]) was found to be 58 ± 2.8 nM.
On to `N#CC(C#N)=C1C(=O)N(Cc2ccc(Br)cc2)c2ccc(S(=O)(=O)N3CCCC3COc3ccccc3)cc21` (stereo not drawn) [Compound 27d, 2-[1-(4-Bromo-benzyl)-2-oxo-5-(2-phenoxymethyl-pyrrolidine-1-sulfonyl)-1,2-dihydro-indol-3-yl-idene]-malononitrile], for which the IC50 was 5700 nM at caspase 1 (setting [5]); 5700 ± 850 nM on caspase 1 (setting [6]); 20.1 ± 1.3 nM on caspase-3 (setting [7]); 20.1 ± 1.3 nM on caspase-3 (setting [8]); 20.1 nM at caspase-3 (read-out: IC50 for caspase-3); 840 ± 125 nM at caspase 6 (setting [9]). In addition, the IC50 on caspase 6 (setting [10]) is 840 ± 125 nM; on caspase 7 (setting [11]), 92.2 ± 11.8 nM; on caspase 7 (setting [12]), 92.2 ± 11.8 nM; on caspase 7 (read-out: IC50 for caspase-7) it was 92.2 nM; on caspase 8 (setting [13]), greater than 50000 nM; on caspase 8 (setting [14]) it was greater than 50000 nM.
